Laboratory results published in US20260042731A1, “(2,4-DICHLOROPHENOXY)ACETIC ACID ANALOGS” (CORTEVA AGRISCIENCE LLC, priority 2022, published 2026).
Where two headings read alike, the source gives them in different places.

What was measured:
[1] = tested on: Ambrosia artemisiifolia (AMBEL), common ragweed; assay: Postemergence herbicide evaluation, growth of Ambrosia artemisiifolia (AMBEL); format: in vivo; conditions: Ambrosia artemisiifolia, post-emergence, percent reduction in plant size relative to untreated control, read-out: AVE. AMBEL; for pest or weed control at 280 g/ha: 280 g ae/ha; for pest or weed control at 560 g/ha: 560 g ae/ha
[2] = tested on: Common Lambsquarters (CHEAL); assay: Greenhouse post-emergence mixture trials, percent visual control; format: in vivo; conditions: CHEAL, 21 DAA; for pest or weed control at 560 g/ha / pest or weed control at 1120 g/ha: Chenopodium album, post-emergence, 504 h; for pest or weed control at 1120 g/ha: read-out: % Control
[3] = tested on: weeds (ABUTH, AMATA, AMBEL, CHEAL, ERICA); assay: Postemergence herbicide evaluation, overall average % weed control across ABUTH, AMATA, AMBEL, CHEAL, ERICA; format: in vivo; conditions: post-emergence, average over the five weeds, read-out: Overall Ave % Weed Control; for pest or weed control at 280 g/ha: 280 g ae/ha; for pest or weed control at 560 g/ha: 560 g ae/ha
Corn (ZEAMX) = assay: Greenhouse post-emergence mixture trials, percent visual control; format: in vivo; conditions: ZEAMX, 21 DAA; for plant injury at 560 g/ha / plant injury at 1120 g/ha: Zea mays, post-emergence, 504 h; for plant injury at 560 g/ha: compound 560 g ae/ha
[4] = tested on: Abutilon theophrasti (ABUTH), velvetleaf; assay: Postemergence herbicide evaluation, growth of Abutilon theophrasti (ABUTH); format: in vivo; conditions: Abutilon theophrasti, post-emergence, percent reduction in plant size relative to untreated control, read-out: AVE. ABUTH; for pest or weed control at 280 g/ha: 280 g ae/ha; for pest or weed control at 560 g/ha: 560 g ae/ha
[5] = Volatility of compounds measured by thermogravimetric analysis (TGA); format: physicochemical
Velvetleaf (ABUTH) = assay: Greenhouse post-emergence mixture trials, percent visual control; format: in vivo; conditions: ABUTH, 21 DAA; for pest or weed control at 560 g/ha / pest or weed control at 1120 g/ha: Abutilon theophrasti, post-emergence, 504 h; for pest or weed control at 560 g/ha: compound 560 g ae/ha; for pest or weed control at 1120 g/ha: compound 1120 g ae/ha, read-out: % Control
[6] = tested on: glyphosate resistant Conyza canadensis (L.) (ERICA), horseweed; assay: Postemergence herbicide evaluation, growth of Conyza canadensis (ERICA); format: in vivo; conditions: Erigeron canadensis, post-emergence, percent reduction in plant size relative to untreated control, read-out: Ave. ERICA; for pest or weed control at 280 g/ha: 280 g ae/ha; for pest or weed control at 560 g/ha: 560 g ae/ha
[7] = tested on: Amaranthus rudis (AMATA), tall water hemp; assay: Postemergence herbicide evaluation, growth of Amaranthus rudis (AMATA); format: in vivo; conditions: Amaranthus tuberculatus, post-emergence, percent reduction in plant size relative to untreated control, read-out: Ave. AMATA; for pest or weed control at 280 g/ha: 280 g ae/ha; for pest or weed control at 560 g/ha: 560 g ae/ha
[8] = tested on: Chenopodium album (CHEAL), common lambsquarters; assay: Postemergence herbicide evaluation, growth of Chenopodium album (CHEAL); format: in vivo; conditions: Chenopodium album, post-emergence, percent reduction in plant size relative to untreated control, read-out: Ave. CHEAL; for pest or weed control at 280 g/ha: 280 g ae/ha; for pest or weed control at 560 g/ha: 560 g ae/ha
[9] = Trial Bridge 2, compound 560 g ae/ha + Saflufenacil 25 g ai or ae/ha
[10] = Trial Bridge 2, compound 560 g ae/ha + Saflufenacil 75 g ai or ae/ha
[11] = Trial Bridge 2, compound 560 g ae/ha + Trifludimoxazin 50 g ai or ae/ha
[12] = Trial Bridge 2, compound 1120 g ae/ha + Saflufenacil 25 g ai or ae/ha
[13] = Trial Bridge 2, compound 1120 g ae/ha + Saflufenacil 75 g ai or ae/ha
[14] = Trial Bridge 2, compound 1120 g ae/ha + Trifludimoxazin 12.5 g ai or ae/ha
[15] = Trial Bridge 2, compound 1120 g ae/ha + Trifludimoxazin 50 g ai or ae/ha
[16] = Trial Bridge 1, compound 560 g ae/ha, no mixing partner
[17] = Trial Bridge 1, compound 1120 g ae/ha, no mixing partner
[18] = Trial Bridge 1, compound 560 g ae/ha + Arylex 5 g ai or ae/ha
[19] = Trial Bridge 1, compound 560 g ae/ha + Mesotrione 150 g ai or ae/ha
[20] = Trial Bridge 1, compound 1120 g ae/ha + Glufosinate 600 g ai or ae/ha
[21] = Trial Bridge 1, compound 1120 g ae/ha + Mesotrione 150 g ai or ae/ha
[22] = compound 1120 g ae/ha, no mixing partner, Trial Bridge 3
[23] = no mixing partner, Trial Bridge 3
[24] = Trial Bridge 1, mixing partner none
[25] = Trial Bridge 2, no mixing partner

Structure (SMILES): O=C(COc1ccc(Cl)cc1Cl)NOCc1ccccc1 [Compound D8, N-(Benzyloxy)-2-(2,4-dichlorophenoxy)acetamide]
- pest or weed control at 280 g/ha ([1]; 168 h, 7 DAA): 68%
- pest or weed control at 560 g/ha ([1]; 168 h, 7 DAA): 75%
- pest or weed control at 280 g/ha ([1]; 336 h, 14 DAA): 96%
- pest or weed control at 560 g/ha ([1]; 336 h, 14 DAA): 95%
- pest or weed control at 280 g/ha ([1]; 504 h, 21 DAA): 99%
- pest or weed control at 560 g/ha ([1]; 504 h, 21 DAA): 99%
- % Control [2, 9]: 100%
- % Control [2, 10]: 100%
- % Control ([2]; Trial Bridge 2, compound 560 g ae/ha + Trifludimoxazin 12.5 g ai or ae/ha): 100%
- % Control [2, 11]: 100%
- % Control [2, 12]: 100%
- % Control [2, 13]: 100%
- % Control [2, 14]: 100%
- % Control [2, 15]: 100%
- % Control ([2]; Trial Bridge 3, compound 560 g ae/ha + Sulfentrazone 130 g ai/ha): 100%
- % Control ([2]; Trial Bridge 3, compound 560 g ae/ha + Sulfentrazone 347 g ai/ha): 100%
- % Control ([2]; Trial Bridge 3, compound 1120 g ae/ha + Sulfentrazone 130 g ai/ha): 100%
- pest or weed control at 560 g/ha ([2]; Trial Bridge 2, compound 560 g ae/ha, no mixing partner): 98%
- pest or weed control at 1120 g/ha ([2]; Trial Bridge 2, compound 1120 g ae/ha, no mixing partner): 100%
- pest or weed control at 560 g/ha ([2]; Trial Bridge 3, compound 560 g ae/ha, no mixing partner): 100%
- pest or weed control at 1120 g/ha ([2]; Trial Bridge 3, compound 1120 g ae/ha, no mixing partner): 100%
- pest or weed control at 560 g/ha [2, 16]: 95%
- pest or weed control at 1120 g/ha [2, 17]: 100%
- % Control [2, 18]: 100%
- % Control [2, 19]: 100%
- % Control [2, 16]: 95%
- % Control [2, 20]: 100%
- % Control [2, 21]: 100%
- pest or weed control at 280 g/ha ([3]; 168 h, 7 DAA): 70%
- pest or weed control at 560 g/ha ([3]; 168 h, 7 DAA): 73%
- pest or weed control at 280 g/ha ([3]; 336 h, 14 DAA): 85%
- pest or weed control at 560 g/ha ([3]; 336 h, 14 DAA): 88%
- pest or weed control at 280 g/ha ([3]; 504 h, 21 DAA): 88%
- pest or weed control at 560 g/ha ([3]; 504 h, 21 DAA): 93%
- % Control (Corn (ZEAMX); [22]): 5%
- plant injury at 560 g/ha (Corn (ZEAMX); Trial Bridge 1, no mixing partner): 5%
- plant injury at 1120 g/ha (Corn (ZEAMX); [17]): 5%
- plant injury at 560 g/ha (Corn (ZEAMX); Trial Bridge 2, mixing partner none): 5%
- plant injury at 560 g/ha (Corn (ZEAMX); [23]): 10%
- plant injury at 1120 g/ha (Corn (ZEAMX); [22]): 5%
- pest or weed control at 280 g/ha ([4]; 168 h, 7 DAA): 83%
- pest or weed control at 560 g/ha ([4]; 168 h, 7 DAA): 83%
- pest or weed control at 280 g/ha ([4]; 336 h, 14 DAA): 93%
- pest or weed control at 560 g/ha ([4]; 336 h, 14 DAA): 91%
- pest or weed control at 280 g/ha ([4]; 504 h, 21 DAA): 99%
- pest or weed control at 560 g/ha ([4]; 504 h, 21 DAA): 96%
- TGA Data (rate of weight loss, volatility) [5]: 0.04 µg/min
- % Control (Velvetleaf (ABUTH); compound 560 g ae/ha + Sulfentrazone 130 g ai/ha, Trial Bridge 3): 100%
- % Control (Velvetleaf (ABUTH); compound 1120 g ae/ha + Sulfentrazone 130 g ai/ha, Trial Bridge 3): 100%
- % Control (Velvetleaf (ABUTH); compound 1120 g ae/ha + Sulfentrazone 347 g ai/ha, Trial Bridge 3): 100%
- pest or weed control at 560 g/ha (Velvetleaf (ABUTH); [23]): 90%
- pest or weed control at 1120 g/ha (Velvetleaf (ABUTH); [23]): 95%
- pest or weed control at 560 g/ha (Velvetleaf (ABUTH); [24]): 100%
- pest or weed control at 1120 g/ha (Velvetleaf (ABUTH); [24]): 100%
- pest or weed control at 560 g/ha (Velvetleaf (ABUTH); [25]): 100%
- pest or weed control at 1120 g/ha (Velvetleaf (ABUTH); [25]): 100%
- % Control (Velvetleaf (ABUTH); [18]): 100%
- % Control (Velvetleaf (ABUTH); Trial Bridge 1, compound 560 g ae/ha + Glyphosate 1120 g ai or ae/ha): 100%
- % Control (Velvetleaf (ABUTH); [19]): 100%
- % Control (Velvetleaf (ABUTH); Trial Bridge 1, compound 560 g ae/ha + diclosulam 35 g ai or ae/ha): 100%
- % Control (Velvetleaf (ABUTH); Trial Bridge 1, compound 1120 g ae/ha + Arylex 5 g ai or ae/ha): 100%
- % Control (Velvetleaf (ABUTH); [20]): 100%
- % Control (Velvetleaf (ABUTH); Trial Bridge 1, compound 1120 g ae/ha + Glyphosate 1120 g ai or ae/ha): 100%
- % Control (Velvetleaf (ABUTH); [21]): 100%
- % Control (Velvetleaf (ABUTH); Trial Bridge 1, compound 1120 g ae/ha + diclosulam 35 g ai or ae/ha): 100%
- % Control (Velvetleaf (ABUTH); [9]): 100%
- % Control (Velvetleaf (ABUTH); [10]): 100%
- % Control (Velvetleaf (ABUTH); [11]): 100%
- % Control (Velvetleaf (ABUTH); [12]): 100%
- % Control (Velvetleaf (ABUTH); [13]): 100%
- % Control (Velvetleaf (ABUTH); [14]): 100%
- % Control (Velvetleaf (ABUTH); [15]): 100%
- pest or weed control at 280 g/ha ([6]; 168 h, 7 DAA): 68%
- pest or weed control at 560 g/ha ([6]; 168 h, 7 DAA): 70%
- pest or weed control at 280 g/ha ([6]; 336 h, 14 DAA): 88%
- pest or weed control at 560 g/ha ([6]; 336 h, 14 DAA): 85%
- pest or weed control at 280 g/ha ([6]; 504 h, 21 DAA): 95%
- pest or weed control at 560 g/ha ([6]; 504 h, 21 DAA): 92%
- pest or weed control at 280 g/ha ([7]; 168 h, 7 DAA): 68%
- pest or weed control at 560 g/ha ([7]; 168 h, 7 DAA): 75%
- pest or weed control at 280 g/ha ([7]; 336 h, 14 DAA): 85%
- pest or weed control at 560 g/ha ([7]; 336 h, 14 DAA): 85%
- pest or weed control at 280 g/ha ([7]; 504 h, 21 DAA): 73%
- pest or weed control at 560 g/ha ([7]; 504 h, 21 DAA): 83%
- pest or weed control at 280 g/ha ([8]; 168 h, 7 DAA): 63%
- pest or weed control at 560 g/ha ([8]; 168 h, 7 DAA): 63%
- pest or weed control at 280 g/ha ([8]; 336 h, 14 DAA): 65%
- pest or weed control at 560 g/ha ([8]; 336 h, 14 DAA): 83%
- pest or weed control at 280 g/ha ([8]; 504 h, 21 DAA): 75%
- pest or weed control at 560 g/ha ([8]; 504 h, 21 DAA): 97%
